From ChEMBL document CHEMBL1130171, “Structure--activity studies for alpha-amino-3-hydroxy-5-methyl-4-isoxazolepropanoic acid receptors: acidic hydroxyphenylalanines” (J Med Chem, 1997) come the findings set out here.

Data set [1] can be described thus: Protolysis constant at an ionic strength of 0.1 M. The format is ADME.
For data set [2], the target named is Glutamate receptor ionotropic, AMPA (Rattus norvegicus, UniProt P19490+P19491+P19492+P19493). Kind of data set: Inhibition of specific binding of [3H]AMPA to Ionotropic glutamate receptor AMPA in rat brain membranes. It counts as cell membranes.
The species named for data set [3] is Rattus norvegicus. Kind of data set: In vitro stimulation of norepinephrine release from hippocampal nerve endings. The format is functional. To be noted: Hippocampus.
For data set [4], the species on record is Rattus norvegicus. Kind of data set: Inhibition of stimulation of NE release by 100 uM of AMPA. It counts as functional.

Turning to `Cc1cc([N+](=O)[O-])ccc1O`, the pKa (as a rule, the pH at which an ionisable group is half protonated) in data set [1] worked out at 7.2.

In turn, `NC(Cc1ccccc1O)C(=O)O` (centres undefined) came in with a pKa in data set [1] of 8.67.

For `NC(Cc1ccc([N+](=O)[O-])c(O)c1[N+](=O)[O-])C(=O)O` (centres undefined), the IC50 – broadly, the concentration needed to halve the response being measured – in data set [2] worked out at 4.9 µM. In addition, the EC50 (commonly the concentration giving half of the maximal effect) in the data set listed under Rattus norvegicus [3] came to 74 µM. The same molecule registered a pKa in data set [1] of 3.2.

As to `NC(Cc1ccc([N+](=O)[O-])c(O)c1)C(=O)O` (centres undefined), the pKa in data set [1] stood at 6.6.

Take `NC(Cc1cccc([N+](=O)[O-])c1O)C(=O)O` (centres undefined): the pKa in data set [1] is 6.6.

Consider `Cc1cccc([N+](=O)[O-])c1O`, for which, in data set [1], the pKa was 7.7.

As for `NC(Cc1cc([N+](=O)[O-])ccc1O)C(=O)O` (centres undefined), the pKa in data set [1] stood at 6.4.

Consider `N[C@@H](Cc1cc([N+](=O)[O-])c(O)c([N+](=O)[O-])c1)C(=O)O`, for which, in data set [1], the pKa is 3.2.

Turning to `NC(Cc1cc(O)c([N+](=O)[O-])cc1[N+](=O)[O-])C(=O)O` (centres undefined), in data set [1], the pKa stood at 3.8.

In data set [1], `NC(Cc1ccc(O)c([N+](=O)[O-])c1)C(=O)O` (centres undefined) displayed a pKa of 6.8.

Molecule `NC(Cc1c([N+](=O)[O-])ccc(O)c1[N+](=O)[O-])C(=O)O` (centres undefined) registered a pKa in data set [1] of 3.6.

Molecule `NC(Cc1cc(O)ccc1[N+](=O)[O-])C(=O)O` (centres undefined) showed a pKa in data set [1] of 6.8.

In turn, `NC(Cn1cc([N+](=O)[O-])c(=O)[nH]c1=O)C(=O)O` (centres undefined) had an EC50 in the data set listed under Rattus norvegicus [3] of 15 µM. Moreover, the pKa in data set [1] amounted to 6.4.

Turning to `NC(Cc1cc([N+](=O)[O-])cc([N+](=O)[O-])c1O)C(=O)O` (centres undefined), the IC50 in the data set listed under Rattus norvegicus [4] amounted to 730 µM; in data set [2] it was 25 µM. Moreover, the pKa in data set [1] was determined as 6.4.

In turn, `O=C(O)C(O)Cc1cc([N+](=O)[O-])cc([N+](=O)[O-])c1O` (centres undefined) returned a pKa in data set [1] of 4.2.

In turn, `NC(Cn1ccc(=O)[nH]c1=O)C(=O)O` (racemic) displayed a pKa in data set [1] of 9.3.

In turn, `Cc1onc(O)c1C[C@H](N)C(=O)O` [(S)-AMPA] came in with an EC50 in the data set filed under Rattus norvegicus [3] of 6.7 µM.

In the case of `O=[N+]([O-])c1cc2nc(O)c(O)nc2cc1[N+](=O)[O-]` [DNQX], half-maximal inhibition in the data set listed under Rattus norvegicus [4] (IC50) required 41 µM.

As to `C=C(C)[C@H]1CN[C@H](C(=O)O)[C@H]1CC(=O)O` [KAINIC ACID], in the data set listed under Rattus norvegicus [3], the EC50 turned out to be 3.7 µM.
